Source: PMC11081523, “An ensemble machine learning model generates a focused screening library for the identification of CDK8 inhibitors” (Protein Science : A Publication of the Protein Society, 2024)

Target: CDK8 (Homo sapiens, UniProt P49336)
Test: LanthaScreen kinase activity assay (Thermo Fisher SelectScreen kinase profiling service)
Type: biochemical
Conditions: for IC50: CDK8, dose-response at 10,000, 3000, 1000, 300 and 100 nM; for inhibition at 10 µM: CDK8 inhibition, compounds tested at 10 μM, read-out: Inhibitory activity (10 μM)
Description: Selected compounds were tested using the Thermo Fisher Scientific SelectScreen kinase profiling service (www.thermofisher.com/selectscreen). The LanthaScreen kinase activity assay was used. In short, a reaction between fluorescein‐labeled substrate and ATP is performed in a container. The reaction is ceased with the addition of EDTA. A terbium‐labeled antibody is added to detect phosphorylated fluorescein‐labeled substrate. A ratio between the acceptor and donor signal is an indicator of the amount of phosphorylated substrate present in the reaction, thereby indicating kinase activity.

CDK8, sequence (P49336 whole entry): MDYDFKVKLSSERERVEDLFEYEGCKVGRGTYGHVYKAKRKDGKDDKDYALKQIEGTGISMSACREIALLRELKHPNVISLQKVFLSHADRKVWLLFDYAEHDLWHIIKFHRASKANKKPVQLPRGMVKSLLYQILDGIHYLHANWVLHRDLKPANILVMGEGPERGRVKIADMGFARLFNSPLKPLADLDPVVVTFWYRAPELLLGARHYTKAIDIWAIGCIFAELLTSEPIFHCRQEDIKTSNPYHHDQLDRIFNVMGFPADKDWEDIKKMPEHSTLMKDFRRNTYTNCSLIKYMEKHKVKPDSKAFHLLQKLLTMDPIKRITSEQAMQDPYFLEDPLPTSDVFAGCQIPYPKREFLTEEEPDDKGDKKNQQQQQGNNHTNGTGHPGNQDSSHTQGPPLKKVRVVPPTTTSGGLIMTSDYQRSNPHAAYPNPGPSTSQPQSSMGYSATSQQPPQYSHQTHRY
CDK8, sequence (P24863 whole entry partner): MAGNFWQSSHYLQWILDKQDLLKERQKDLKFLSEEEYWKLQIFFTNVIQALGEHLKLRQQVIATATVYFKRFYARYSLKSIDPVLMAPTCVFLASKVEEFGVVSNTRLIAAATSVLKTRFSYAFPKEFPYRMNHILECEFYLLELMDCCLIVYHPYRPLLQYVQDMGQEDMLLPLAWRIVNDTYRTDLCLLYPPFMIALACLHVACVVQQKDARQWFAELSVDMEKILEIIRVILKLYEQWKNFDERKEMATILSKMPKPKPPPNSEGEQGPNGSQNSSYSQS

Structure (SMILES) | IC50 [µM] | inhibition at 10 µM [%]
Cc1ccc(NC(=O)Nc2cnn(-c3ncncc3N3CCOCC3)c2)cc1C [T479‐0984] | 0.0999 | > 90
CCCn1cc(-c2ccncc2)cc1C(=O)N1CCC(C)CC1 [P076‐1448] | 2.26 | 73
CCc1cc2c(N3CCCC(C(=O)N4CCN(c5ccc(F)cc5)CC4)C3)ncnc2s1 (stereo not drawn) [G887‐0711] | 1.16 | > 90
CC1CCN(C(=O)c2ccc3ncnc(N4CCCCC4)c3c2)CC1 [M628‐0340] | 1.92 | 77
CCn1cc(-c2ccncc2)cc1C(=O)N1CCN(c2ccc(Cl)cc2)CC1 [P076‐1220] | 4.44 | 71
COc1ccc2ncc(C#N)c(N3CCC(C(=O)Nc4ccc(F)c(C)c4)CC3)c2c1 [L483‐0192] | 1.84 | 71
